Experimental data as given in patent publication US7067515B2, “Quinuclidines-substituted-multi-cyclic-heteroaryls for the treatment of disease” (Pfizer Inc., priority 2001, dated 2006).
pKi: −log10 of the molar value. Structures can show the parent of a compound that is named as a salt.

Target: T1, α7 nAChR (Rattus norvegicus, UniProt Q05941)
T1 construct: brains (whole brain minus cerebellum) are dissected quickly, weighed and homogenized; from tissue; host or cells: rat brain (whole brain minus cerebellum) membrane homogenate
Experiment: [3H]-MLA competition binding assay in rat brain membranes
Details: not given
Procedure: Materials and Methods for Identifying Binding Constants:
Membrane Preparation. Male Sprague-Dawley rats (300–350 g) are sacrificed by decapitation and the brains (whole brain minus cerebellum) are dissected quickly, weighed and homogenized in 9 volumes/g wet weight of ice-cold 0.32M sucrose using a rotating pestle on setting 50 (10 up and down strokes). The homogenate is centrifuged at 1,000×g for 10 minutes at 4° C. The supernatant is collected and centrifuged at 20,000×g for 20 minutes at 4° C. The resulting pellet is resuspended to a protein concentration of 1–8 mg/mL. Aliquots of 5 mL homogenate are frozen at −80° C. until needed for the assay. On the day of the assay, aliquots are thawed at room temperature and diluted with Kreb's—20 mM Hepes buffer pH 7.0 (at room temperature) containing 4.16 mM NaHCO3, 0.44 mM KH2PO4, 127 mM NaCl, 5.36 mM KCl, 1.26 mM CaCl2, and 0.98 mM MgCl2, so that 25–150 μg protein are added per test tube. Proteins are determined by the Bradford method (Bradford, M. M., Anal. Biochem., 72, 248–254, 1976) using bovine serum albumin as the standard.
Binding Assay. For saturation studies, 0.4 mL homogenate are added to test tubes containing buffer and various concentrations of radioligand, and are incubated in a final volume of 0.5 mL for 1 hour at 25° C. Nonspecific binding was determined in tissues incubated in parallel in the presence of 1 μM MLA, added before the radioligand. In competition studies, drugs are added in increasing concentrations to the test tubes before addition of approximately 3.0 to 4.0 nM [^3H]-MLA. The incubations are terminated by rapid vacuum filtration through Whatman GF/B glass filter paper mounted on a 48 well Brandel cell harvester. Filters are pre-soaked in 50 mM Tris HCl pH 7.0–0.05% polyethylenimine. The filters are rapidly washed two times with 5 mL aliquots of cold 0.9% saline and then counted for radioactivity by liquid scintillation spectrometry.
Data Analysis. In competition binding studies, the inhibition constant (Ki) was calculated from the concentration dependent inhibition of [^3H]-MLA binding obtained from non-linear regression fitting program according to the Cheng-Prusoff equation (Cheng, Y. C. and Prussoff, W. H., Biochem. Pharmacol., 22, p. 3099–3108, 1973). Hill coefficients were obtained using non-linear regression (GraphPad Prism sigmoidal dose-response with variable slope).

T1 sequence (Q05941 23-502): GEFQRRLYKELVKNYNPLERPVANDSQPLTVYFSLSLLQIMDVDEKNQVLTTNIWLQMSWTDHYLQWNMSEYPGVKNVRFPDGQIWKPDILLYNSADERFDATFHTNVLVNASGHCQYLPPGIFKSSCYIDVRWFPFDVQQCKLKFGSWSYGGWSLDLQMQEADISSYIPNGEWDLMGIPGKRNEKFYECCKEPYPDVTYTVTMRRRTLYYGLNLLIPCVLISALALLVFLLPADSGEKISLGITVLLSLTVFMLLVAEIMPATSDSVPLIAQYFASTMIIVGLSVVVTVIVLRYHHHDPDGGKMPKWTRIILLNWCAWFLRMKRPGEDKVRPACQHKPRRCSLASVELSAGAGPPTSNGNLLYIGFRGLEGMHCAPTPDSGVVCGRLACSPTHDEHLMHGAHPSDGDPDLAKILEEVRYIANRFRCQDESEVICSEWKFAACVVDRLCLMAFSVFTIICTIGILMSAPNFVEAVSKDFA

SMILES | pKi
O=C(N[C@H]1CN2CCC1CC2)c1cc2c(cn1)OCC2 [Example 1, N-[(3R)-1-azabicyclo[2.2.2]oct-3-yl]-2,3-dihydrofuro[2,3-c]pyridine-5-carboxamide dihydrochloride] | 7.22 to 7.30
Cc1cc2cc(C(=O)N[C@H]3CN4CCC3CC4)ncc2o1 [Example 6, N-[(3R)-1-azabicyclo[2.2.2]oct-3-yl]-2-methylfuro[2,3-c]pyridine-5-carboxamide dihydrochloride] | 6.92
Cc1coc2cnc(C(=O)N[C@H]3CN4CCC3CC4)cc12 [Example 9, N-[(3R)-1-azabicyclo[2.2.2]oct-3-yl]-3-methylfuro[2,3-c]pyridine-5-carboxamide] | 8.22 to 9.00
O=C(N[C@H]1CN2CCC1CC2)c1cc2cccnc2s1 [Example 13, N-((3R)-1-azabicyclo[2.2.2]oct-3-yl)thieno[2,3-b]pyridine-2-carboxamide dihydrochloride] | 6.97
O=C(N[C@H]1CN2CCC1CC2)c1cc2ccncc2s1 [Example 17, N-[(3R)-1-azabicyclo[2.2.2]oct-3-yl]thieno[2,3-c]pyridine-2-carboxamide dihydrochloride] | 7.19
O=C(N[C@H]1CN2CCC1CC2)c1ccc2sccc2n1 [Example 19, N-[(3R)-1-azabicyclo[2.2.2]oct-3-yl]thieno[3,2-b]pyridine-5-carboxamide dihydrochloride] | 6.56
O=C(N[C@H]1CN2CCC1CC2)c1cnc2ccsc2c1 [Example 20, N-[(3R)-1-azabicyclo[2.2.2]oct-3-yl]thieno[3,2-b]pyridine-6-carboxamide dihydrochloride] | 6.02
O=C(N[C@H]1CN2CCC1CC2)c1cc2ccsc2cn1 [Example 22, N-[(3R)-1-azabicyclo[2.2.2]oct-3-yl]thieno[2,3-c]pyridine-5-carboxamide dihydrochloride] | 8.30
O=C(N[C@H]1CN2CCC1CC2)c1cc2c(Cl)coc2cn1 [Example 28, N-[(3R)-1-Azabicyclo[2.2.2]oct-3-yl]-3-chlorofuro[2,3-c]pyridine-5-carboxamide dihydrochloride] | 8.52
O=C(N[C@H]1CN2CCC1CC2)c1cc2c(Br)coc2cn1 [Example 29, N-[(3R)-1-Azabicyclo[2.2.2]oct-3-yl]-3-bromofuro[2,3-c]pyridine-5-carboxamide] | 8.40
O=C(N[C@H]1CN2CCC1CC2)c1cc2occc2cn1 [Example 30, N-[(3R)-1-Azabicyclo[2.2.2]oct-3-yl]furo[3,2-c]pyridine-6-carboxamide dihydrochloride] | 7.35
O=C(N[C@H]1CN2CCC1CC2)c1cc2c(Br)csc2cn1 [Example 31, N-[(3R)-1-azabicyclo[2.2.2]oct-3-yl]-3-bromothieno[2,3-c]pyridine-5-carboxamide] | 8.05
C[C@H]1[C@H](NC(=O)c2cc3ccoc3cn2)C2CCN1CC2 [Example 33, N-[(2S,3R)-2-methyl-1-azabicyclo[2.2.2]oct-3-yl]furo[2,3-c]pyridine-5-carboxamide dihydrochloride] | 7.82
Cc1coc2cnc(C(=O)N[C@@H]3C4CCN(CC4)[C@H]3C)cc12 [Example 34, 3-methyl-N-[(2S,3R)-2-methyl-1-azabicyclo[2.2.2]oct-3-yl]furo[2,3-c]pyridine-5-carboxamide dihydrochloride] | 7.82
C[C@H]1[C@H](NC(=O)c2cc3ccsc3cn2)C2CCN1CC2 [Example 35, N-[(2S,3R)-2-methyl-1-azabicyclo[2.2.2]oct-3-yl]thieno[2,3-c]pyridine-5-carboxamide dihydrochloride] | 7.74
C[C@H]1[C@H](NC(=O)c2cc3sccc3cn2)C2CCN1CC2 [Example 36, N-[(2S,3R)-2-methyl-1-azabicyclo[2.2.2]oct-3-yl]thieno[3,2-c]pyridine-6-carboxamide dihydrochloride] | 7.92
O=C(N[C@H]1CN2CCC1CC2)c1cc2cscc2cn1 [Example 40, N-[(3R)-1-azabicyclo[2.2.2]oct-3-yl]thieno[3,4-c]pyridine-6-carboxamide methanesulfonate] | 7.60

Same assay, conditions: competition with approximately 3.0 to 4.0 nM [3H]-MLA, rat brain (whole brain minus cerebellum) homogenate, 1 hour at 25° C, Cheng-Prusoff; read-out: Ki Value

SMILES | pKi
O=C(N[C@H]1CN2CCC1CC2)c1cc2cnccc2o1 [Example 2, N-[(3R)-1-azabicyclo[2.2.2]oct-3-yl]furo[3,2-c]pyridine-2-carboxamide] | 5.89
O=C(N[C@H]1CN2CCC1CC2)c1cc2ccoc2c(Cl)n1 [Example 3, N-[(3R)-1-azabicyclo[2.2.2]oct-3-yl]-7-chlorofuro[2,3-c]pyridine-5-carboxamide hydrochloride] | 5.65
O=C(N[C@H]1CN2CCC1CC2)c1cc2ccoc2cn1 [Example 4, N-[(3R)-1-azabicyclo[2.2.2]oct-3-yl]furo[2,3-c]pyridine-5-carboxamide dihydrochloride] | 8.00 to 8.05
O=C(N[C@H]1CN2CCC1CC2)c1cc2cnccc2s1 [Example 21, N-[(3R)-1-azabicyclo[2.2.2]oct-3-yl]thieno[3,2-c]pyridine-2-carboxamide dihydrochloride] | 6.57
O=C(N[C@H]1CN2CCC1CC2)c1cc2sccc2cn1 [Example 23, N-[(3R)-1-azabicyclo[2.2.2]oct-3-yl]thieno[3,2-c]pyridine-6-carboxamide dihydrochloride] | 8.30
